Measurements reported in patent US8790712B2, “Constitutional function-improving agents” (Cosmo Oil Co., Ltd., priority 2004, dated 2014).

What was measured:
[1] = system: Mice (35 to 45 weeks old, BALB/cAJc1); assay: Migration distance in cage for 5 minutes (Example 4); type: in vivo, mouse; conditions: 10 mg/kg orally once a day for 7 days; for Exercise quantity (m): migration distance in 5 minutes
Experimental: Mice (35 to 45 weeks old, BALB/cAJc1) preliminary raised for 1 week were injected with 10 mg of ALA hydrochloride per 1 kg mouse body weight once a day for 7 days continuously. ALA hydrochloride was adjusted to a concentration of 0.5 g/ml with distilled water and orally administered to the mice. After the test, the mouse was put into a cage of 20 cm×20 cm in floor area, and its migration distance was measured for 5 minutes. The test was carried out using 5 male and 5 female mice, a total of 10 animals, for each plot, and the values were shown by average value. It was confirmed that the migration distance is long and the capacity for locomotion is improved in both cases of male and female in the ALA-treated plot.

[2] = system: ALA dehydrase (ALAD); assay: ALAD activity of blood (Example 5); type: in vivo, mouse; conditions: male mice, 10 mg/kg orally once a day for 7 days
Experimental: (§1) Mice (35 to 45 weeks old, BALB/cAJc1) preliminary raised for 1 week were injected with 10 mg of ALA hydrochloride per 1 kg mouse body weight once a day for 7 days continuously. ALA hydrochloride was adjusted to a concentration of […] with distilled water and orally administered to the mice. After the test, each mouse was sacrificed to collect mouse blood, and ALA dehydrase (ALAD) activity (the activity of ALA in which it is dimerized and thereby forms porphobilinogen (hereinafter referred to as “PBG”) as one molecule pyrrole substance) and porphobilinogen deaminase (PBGD) activity (the activity to convert from PBG to hydroxymethylbilane) per 1 ml of the blood were measured. […] To 0.02 ml of heparin-treated mouse whole blood, 0.33 ml of distilled water was added, the mixture was adjusted to a total volume of 0.5 ml by adding thereto 0.05 ml of 0.5 M Na-phosphate buffer (pH 6.4), 0.05 ml of 0.1 M DTT (containing 1 mM ZnSO4) and 0.05 ml of 50 mM ALA hydrochloride and was kept at 37° C. for 30 minutes, the reaction was stopped by adding 0.5 ml of 1 M trichloroacetic acid, and then Ehrlich reagent was added to a supernatant after centrifugation at 3000 rpm in the same volume, and precisely 10 minutes thereafter, absorbance at 553 nm, which is a characteristic absorbance of the compound formed by the reaction of Ehrlich reagent with PBG, was measured (OD) using a spectrophotometer. […]

[3] = system: porphobilinogen deaminase (PBGD); assay: PBGD activity of blood (Example 5); type: in vivo, mouse; conditions: male mice, 10 mg/kg orally once a day for 7 days
Experimental: as §1

[4] = system: γ-GTP (gamma glutamyl transpeptidase); assay: Blood plasma γ-GTP of broiler chicks (Example 9); type: in vivo, chick
Excerpt: A total of 300 chicks, 150 chicks for females and males respectively, of broiler primary chicks (Chunky) were purchased. After the purchase, chicks having abnormality (weakness or dwarf) were excluded, and the rest were equipped with wing belts for individual identification and their body weights were individually measured. […] Using 15 female or male chicks (30 chicks in total) as 1 group, they were put into a Chick Gird arranged in a closed type barn, and warmed by arranging an infrared ray lamp for animal use. The Chick Gird was expanded along with the growth of chicks. The feed and drinking water were constantly provided. The test groups were set to a total of 3 groups containing a control group in which a control feed (a standard testing feed SDB No. 1 was used from the neonatal to 3 weeks old, or a standard testing feed SDB No. 2 from 3 weeks old to 7 weeks old, (both manufactured by Nippon Formula Feed Mfg Co., Ltd., Table 9) without adding ALA hydrochloride is provided, and 2 test groups of ALA-10 ppm treated group and ALA-50 ppm treated group in which 10 ppm or 50 ppm of ALA hydrochloride is added to the feed and provided, and 3 repetition plots were arranged for each group. The number of chicks to be tested in each test group was as shown in Table 10. The test period was set to 7 weeks (7 weeks old) from the neonatal (start of the added feed provision), and total body weight of females or males was measured for each repetition plot at the time of the neonatal and at intervals of 1 week thereafter. In addition, about 2 ml of blood was collected from a brachial vein (basilic vein) of each of 18 chicks (3 female or male chicks/repetition) of each group at 3 weeks old and 7 weeks old, and about 1.5 ml thereof was subjected to a coagulation preventing treatment using heparin-lithium salt and then the blood plasma was separated to inspect the items of LDH, GOT (AST), γ-GTP, ALP, total protein, albumin, globulin, total cholesterol, triglyceride, glucose, uric acid, total bilirubin, uric acid, creatinine, calcium and inorganic phosphorus.

## NCC(=O)CCC(=O)O [ALA, 5-aminolevulinic acid]
[1]; ALA-treated mice during the test
  Symptoms such as abnormal stimulation and action: symptoms such as abnormal stimulation and action were not observed
[1]; female mice
  Exercise quantity (m): 25.5 m
[1]; male mice
  Exercise quantity (m): 41 m
[2]
  ALAD activity: 1.76 μmol PBG/ml RBC/h
[3]
  PBGD activity: 67.36 nmol URO/ml RBC/h
[4]; 10 ppm in feed, 3 weeks old
  γ-GTP (IU/l): 29.7 IU/l
[4]; 10 ppm in feed, 7 weeks old
  γ-GTP (IU/l): 29.7 IU/l
[4]; 50 ppm in feed, 3 weeks old
  γ-GTP (IU/l): 30.0 IU/l
[4]; 50 ppm in feed, 7 weeks old
  γ-GTP (IU/l): 32.7 IU/l
